Source: ChEMBL document CHEMBL3351419, “Orally bioavailable 6-chloro-7-methoxy-4(1H)-quinolones efficacious against multiple stages of Plasmodium” (J Med Chem, 2014)
≈ marks a conversion by molar mass, not a printed value.

Columns and labels:
[1] = test system: Plasmodium falciparum; assay: Antimalarial activity against multi-drug-resistant Plasmodium falciparum W2 infected in human type A+ erythrocytes assessed as growth inhibition after 72 hrs by SYBR Green I assay; assay type: functional, organism-based; settings: W2, 72 h
[2] = test system: Plasmodium falciparum; assay: Antimalarial activity against multi-drug-resistant Plasmodium falciparum TM90-C2B infected in human type A+ erythrocytes assessed as growth inhibition after 72 hrs by SYBR Green I assay; assay type: functional, organism-based
[3] = Resistance index, ratio of EC50 for multi-drug-resistant Plasmodium falciparum TM90-C2B infected in human type A+ erythrocytes to EC50 for multi-drug-resistant Plasmodium falciparum W2 infected in human type A+ erythrocytes; assay type: functional
[4] = test system: J774; assay: Cytotoxicity against mouse J774 cells after 72 hrs by CellTiter 96 assay; assay type: cell-based; settings: J774, 72 h
[5] = Cytotoxicity index, ratio of EC50 for mouse J774 cells to EC50 for multi-drug-resistant Plasmodium falciparum TM90-C2B infected in human type A+ erythrocytes; assay type: toxicity, cell-based; settings: read-out: Ratio EC50
[6] = test system: Plasmodium berghei; assay: Antimalarial activity against Plasmodium berghei ANKA expressing GFP infected in Balb/c mouse assessed as inhibition of parasitemia at 50 mg/kg, po qd administered as single dose on day 3 to 5 of exposure measured on day 6 post exposure by in vivo thomson test relative to control; assay type: functional
[7] = test system: Plasmodium berghei; assay: Antimalarial activity against Plasmodium berghei ANKA expressing GFP infected in Balb/c mouse assessed as inhibition of parasitemia at 10 mg/kg, po qd administered as single dose on day 3 to 5 of exposure measured on day 6 post exposure by in vivo thomson test relative to control; assay type: functional
[8] = test system: Plasmodium berghei; assay: Antimalarial activity against Plasmodium berghei ANKA expressing GFP infected in Balb/c mouse assessed as mouse survival at 50 mg/kg, po qd administered as single dose on day 3 to 5 of exposure measured on day 6 post exposure by in vivo thomson test relative to control; assay type: functional
[9] = test system: Plasmodium berghei; assay: Antimalarial activity against Plasmodium berghei ANKA expressing GFP infected in Balb/c mouse assessed as mouse survival at 10 mg/kg, po qd administered as single dose on day 3 to 5 of exposure measured on day 6 post exposure by in vivo thomson test relative to control; assay type: functional
[10] = test system: Plasmodium berghei; assay: animal or person; settings: ANKA, in Mus musculus, read-out: INH
[11] = test system: Plasmodium berghei; assay: animal or person; settings: ANKA, in Mus musculus, read-out: INH; remark: listed apart in the source
[12] = test system: Plasmodium berghei; assay: Antimalarial activity against Plasmodium berghei ANKA expressing GFP infected in Balb/c mouse assessed as mouse cured from disease at 50 mg/kg, po qd administered as single dose on day 3 to 5 of exposure measured on day 30 post exposure by in vivo thomson test relative to control; assay type: functional
[13] = test system: Plasmodium berghei; assay: Antimalarial activity against Plasmodium berghei ANKA expressing GFP infected in Balb/c mouse assessed as mouse cured from disease at 10 mg/kg, po qd administered as single dose on day 3 to 5 of exposure measured on day 30 post exposure by in vivo thomson test relative to control; assay type: functional
[14] = test system: Liver microsome; assay: Half life in human liver microsomes at 1 uM by LC-MS analysis; assay type: ADME
[15] = Aqueous solubility of the compound at pH 7.4; assay type: physicochemical; settings: buffer
[16] = octanol/water, pH 7.4

Compound	EC50 [1] [nM]	EC50 [2] [nM]	Ratio EC50 [3]	EC50 [4] [nM]	selectivity ratio [5]	inhibition in vivo at 50 mg/kg [6] [%]	inhibition in vivo at 10 mg/kg [7] [%]	mouse survival time at 50 mg/kg [8] [days]	survival time at 10 mg/kg [9] [days]	inhibition in vivo at 50 mg/kg [10] [%]	inhibition in vivo at 50 mg/kg [11] [%]	Activity [12] [%]	Activity [13] [%]	t1/2 [14] [h]	solubility kinetic [15] [µM]	logD [16]
COc1cc2[nH]c(C)c(-c3ccccc3C)c(=O)c2cc1Cl	5.83	4.03	0.69	> 31900	> 7910	41	17	0	0	9						
COc1cc2[nH]c(C)c(-c3ccc(N(C)C)nc3)c(=O)c2cc1Cl	748	91.1	0.12	> 29100	> 319	22	< 1	0	0							
COc1cc2[nH]c(C)c(-c3ccc(N4CCN(C)CC4)nc3)c(=O)c2cc1Cl	1580	536	0.34	> 25100	> 46.8					0	0					
COc1cc2[nH]c(C)c(-c3ccco3)c(=O)c2cc1Cl	34.2	8.43	0.25	> 34500	> 4100	< 1	< 1	0	0							
COc1ccc(-c2c(C)[nH]c3cc(OC)c(Cl)cc3c2=O)cc1	54	11.3	0.21	> 30300	> 2690					53.6	26.9					
COc1cc2[nH]c(C)c(-c3ccc(OC(C)C)cc3)c(=O)c2cc1Cl	58.4	12.6	0.22	> 27900	> 2220					41.4	26.8					
COc1cc2[nH]c(C)c(-c3ccc(CO)cc3)c(=O)c2cc1Cl	154	93.9	0.61	> 30300	> 323	< 1	< 1	0	0							
COc1cc2[nH]c(C)c(-c3ccc(-c4ccccc4)cc3)c(=O)c2cc1Cl	1.78	4.33	2.43	> 26600	> 6140	79	80	0	0	85.7	61					
COc1cc2[nH]c(C)c(-c3ccc(Oc4ccccc4)cc3)c(=O)c2cc1Cl	2.4	1.31	0.55	> 25500	> 19500	70	87	4	4	83.9	69	0	0			
COc1cc2[nH]c(C)c(-c3ccc(F)cc3)c(=O)c2cc1Cl	20.8	35.8	1.72	> 31500	> 879	30	63	1	1			0	0			
COc1cc2[nH]c(C)c(-c3ccc(F)cc3F)c(=O)c2cc1Cl	26.3	44.6	1.7	> 29800	> 668					44.3	29.1					
COc1cc2[nH]c(C)c(-c3ccc(C(F)(F)F)cc3)c(=O)c2cc1Cl	6.25	5.98	0.96	> 27200	> 4550	97	92	4	3			0	0			
COc1cc2[nH]c(C)c(-c3ccc(OC(F)(F)F)cc3)c(=O)c2cc1Cl	7.72	7.76	1.01	> 26100	> 3360					60	28.8					
COc1cc2[nH]c(C)c(-c3ccc(F)cc3C)c(=O)c2cc1Cl	7.52	8.07	1.07	13600	1690									1.93	< 2	2.7
COc1cc2[nH]c(C)c(-c3ccc(Oc4ccc(OC(F)(F)F)cc4)cc3C)c(=O)c2cc1Cl	0.312	0.646	2.07	> 20400	> 31600	98	99		23				100		< 2	2.1
COc1cc2[nH]c(C)c(-c3ccc(COc4ccc(OC(F)(F)F)cc4)cc3)c(=O)c2cc1Cl	7.74	1.59	0.21	> 20400	> 12800									2.15		4.4
COc1cc2[nH]c(C)c(-c3ccc(OCc4ccccc4)c(F)c3)c(=O)c2cc1Cl	73.4	10.8	0.15	> 23600	> 2180									0.383	< 2	3.8
CCCSc1ccc2nc(NC(=O)OC)[nH]c2c1 [ALBENDAZOLE]															6.1 (≈ 1.62 µg/mL)	
C[C@H]1[C@H](OC(=O)CCC(=O)O)O[C@@H]2O[C@@]3(C)CC[C@H]4[C@H](C)CC[C@@H]1[C@@]24OO3 [ARTESUNATE]										97	81					
O=C1C(O)=C([C@H]2CC[C@H](c3ccc(Cl)cc3)CC2)C(=O)c2ccccc21 [ATOVAQUONE]		18400										0				
